# In patent US20240408126A1, “BACTERIAL CAPSULAR OLIGOSACCHARIDE DERIVATIVE, PREPARATION METHOD THEREFOR, PHARMACEUTICAL COMPOSITION AND USE THEREOF” (PEKING UNIVERSITY, priority 2021, published 2024):
# Key:
# LPS-induced sepsis model = assay: LPS-induced survival rate in sepsis model of mice; type: in vivo, male C57BL/6 mice; details: three times, LPS 45 mg/kg, after 72 hours, model group 40%
# Protocol: A total of 60 male C57BL/6 mice aged 6-8 weeks, weighing 20±2 g, were selected. The mice were placed in a feeding room with temperature of 20-24° C. and humidity of 50%-60%, and were allowed to drink and eat freely. They were adaptively raised for 7 days before the experiment.
# The mice were randomly divided into six groups: control group, model group, CP-1 high dose group (30 mg/kg), CP-1 middle dose group (10 mg/kg), CP-1 low dose group (3 mg/kg), and dexamethasone group, with 10 mice in each group. CP-1 high-dose group was intraperitoneally injected with 200 μL CP-1 solution at the concentration of 30 mg/kg, CP-1 middle-dose group was intraperitoneally injected with equal volume of CP-1 solution at the concentration of 10 mg/kg, CP-1 low-dose group was intraperitoneally injected with equal volume of CP-1 solution at the concentration of 3 mg/kg, dexamethasone group was intraperitoneally injected with equal volume of dexamethasone solution at the concentration of 30 mg/kg, and control group was intraperitoneally injected with equal volume of 0.9% normal saline. Except for the control group, all groups were intraperitoneally injected with 200 μL of LPS solution at 45 mg/kg for modeling. Each group was administered once for a total of three times, 48 hours and 24 hours before modeling, and 30 minutes after modeling. After administration, the state and survival rate of mice were observed and recorded every 6 hours for 72 hours.
# [1] = system: LPS-induced inflammatory factors in serum; assay: LPS-induced cytokines in serum of sepsis mouse model (CP-Me); type: in vivo, male C57BL/6 mice; details: 10 mg/kg and 3 mg/kg intraperitoneal, two times; LPS 25 mg/kg; serum after 12 hours; IL-1β, IL-6, TNF-α; FIG. 7
# Protocol: A total of 24 male C57BL/6 mice aged 6-8 weeks, weighing 20±2 g, were selected. The mice were placed in a feeding room with temperature of 20-24° C. and humidity of 50%-60%, and were allowed to drink and eat freely. They were adaptively raised for 7 days before the experiment. Mice were randomly divided into four groups: control group, CP-Me group, LPS group and LPS+CP-Me group, with 6 mice in each group. CP-Me 10 mg/kg group and CP-Me 3 mg/kg group were intraperitoneally injected with 200 μL CP-Me solution at the concentrations of 10 mg/kg and 3 mg/kg, while the control group and LPS group were intraperitoneally injected with equal volume of 0.9% normal saline. LPS group was injected intraperitoneally with 200 μL LPS solution at 25 mg/kg for modeling. Each group was administered once for a total of two times, 12 hours before modeling and 30 minutes after modeling. After 12 hours of administration, the mice were anesthetized and blood was taken from the heart. After the blood stood for 2 hours, it was centrifuged at 5000 rpm for 10 minutes to collect serum. According to the instructions of Elisa kit, the absorbance of each hole was detected by using a multifunctional enzyme-labeled instrument at the wavelength of 450 nm, and the contents of cytokines IL-1β, IL-6, and TNF-α were calculated according to the standard curve.
Compound,survival rate of mice (LPS-induced sepsis model; 3 mg/kg (low dose) intraperitoneal) [%],survival rate of mice (LPS-induced sepsis model; 10 mg/kg (middle dose) intraperitoneal) [%],survival rate of mice (LPS-induced sepsis model; 30 mg/kg intraperitoneal) [%],effect on LPS-induced inflammatory factors in serum [1]
"CC(=O)NC1[C@H](OC2[C@@H](O[C@@H]3C(NC(C)=O)C(O)OC(CO)[C@@H]3O)OC(C(=O)O)[C@H](O)[C@@H]2O)OC(CO)[C@@H](O)[C@@H]1O[C@@H]1OC(C(=O)O)[C@@H](O)[C@H](O)C1O (stereo partly drawn) [CP-1, β-D-glucopyranuronic acid-(1→3)-2-deoxy-2-acetylamino-β-D-glucopyranosyl-(1→2)-α-D-galactopyranoic acid-(1→3)-2-deoxy-2-acetylamino-α,β-D-galactopyranoside]",70,80,70,
"C[C@@H]1C[C@H]2[C@@H]3CCC4=CC(=O)C=C[C@]4(C)[C@@]3(F)[C@@H](O)C[C@]2(C)[C@@]1(O)C(=O)CO [dexamethasone, reference compound]",,,60,
"CO[C@@H]1OC(CO)[C@H](O)C(O[C@H]2OC(C(=O)O)[C@H](O)C(O)C2O[C@@H]2OC(CO)[C@@H](O)C(O[C@@H]3OC(C(=O)O)[C@@H](O)C(O)C3O)C2NC(C)=O)C1NC(C)=O (stereo partly drawn) [CP-Me, methyl β-D-glucopyranuronic acid-(1→3)-2-deoxy-2-acetylamino-β-D-glucopyranosyl-(1→2)-α-D-galactopyranoic acid-(1→3)-2-deoxy-2-acetylamino-α,β-D-galactopyranoside]",,,,inhibitory effect
